Several values for one entry are separate records, joined by “and”; a condition that tells them apart may be missing. Identical values can stand only once.
Tests used:
Format in all cases: functional, Homo sapiens
Set-up in all cases: dose or concentration left out as unconfirmed
[1] = test system: Colon cancer organoid; assay: (§1) Image-based profiling of donated chemical probes and chemogenomic kinase set in O21 CRC organoid. Image analysis is performed on the sum area metric, and the data were normalized to the DMSO control. After imaging the organoid viability is measured using the OneGloEX Luciferase Assay System. The normalized viability data and sum area are reported.
[2] = test system: Colon cancer organoid; assay: as §1, with “O06” for “O21”
[3] = test system: Colon cancer organoid; assay: as §1, with “O09” for “O21”

Row | Compound | Cell Viability ([1]; Replication number 1) | Cell Viability ([1]; Replication number 2) | Cell Viability ([2]; Replication number 1) | Cell Viability ([2]; Replication number 2) | Cell Viability ([3]; Replication number 1) | Cell Viability ([3]; Replication number 2)
1 | O=C(c1ccc(C(=O)N2CCC(N3CCCC3)CC2)c(Nc2ccccc2)c1)N1CCC(N2CCCC2)CC1 | 116.035% and 118.746% | 94.3605% and 99.3437% | 185.477% and 131.195% | 168.44% and 129.527% | 81.7706% and 92.0402% | 143.807% and 112.037%
2 | CC(C)N(CCCNC(=O)Nc1ccc(C(C)(C)C)cc1)C[C@H]1O[C@@H](n2cc(Br)c3c(N)ncnc32)[C@H](O)[C@@H]1O | 110.58% and 96.4076% | 91.3203% and 86.9928% | 99.7362% and 93.745% | 121.159% and 96.0701% | 88.0955% and 91.1128% | 116.782% and 110.611%
3 | COc1cc2c(cc1OCCCN1CCCC1)N=C(N)C21CCC1 | 92.2277% and 112.28% | 68.723% and 97.1957% | 110.816% and 131.678% | 106.27% and 117.339% | 70.9946% and 111.515% | 77.9538% and 123.155%
4 | CCOC(=O)CCNc1cc(N2CCc3ccccc3CC2)nc(-c2ccccn2)n1 | 97.5264% and 129.915% | 84.038% and 100.955% | 148.439% and 134.336% | 153.418% and 113.038% | 78.8625% and 87.8671% | 139.531% and 105.195%
5 | CCCc1cc(C)[nH]c(=O)c1CNC(=O)c1cc(-c2ccc(N3CCN(C(C)C)CC3)nc2)cc2c1cnn2C(C)C | 90.7936% and 81.7113% | 90.0059% and 120.286% | 117.017% and 105.342% | 150.35% and 108.975% | 144.261% and 110.819% | 125.635% and 91.796%
6 | CCCOc1ccn2c(C(C)=O)cc(-c3ccccc3S(C)(=O)=O)c2c1 | 106.031% and 126.388% | 99.7688% and 110.084% | 138.616% and 118.389% | 149.88% and 120.685% | 82.358% and 82.5348% | 234.066% and 124.865%
7 | CCN(C(=O)CO)[C@H]1CN(/C(=N\C#N)Nc2cccc(OC(F)F)c2)N=C1c1ccc(Cl)c(Cl)c1 | 56.7523% and 64.6636% | 98.5958% and 108.473% | 122.514% and 121.772% | 131.133% and 123.792% | 95.5807% and 90.881% | 163.22% and 117.738%
8 | Cl.Cl.c1ccc([C@@H]2C[C@H]2NC2CCNCC2)cc1 | 139.321% and 134.03% | 128.492% and 116.527% | 175.971% and 140.859% | 170.528% and 119.251% | 165.336% and 102.473% | 183.388% and 100.348%
9 | Cc1nnc2c3ccccc3c(N[C@@H](C)[C@H](c3ccccc3)N(C)C)nn12 | 132.945% and 134.618% | 79.559% and 84.8449% | 129.952% and 136.027% | 163.32% and 118.295% | 148.648% and 110.587% | 133.595% and 98.3529%
10 | C[C@H]1CC(=O)Nc2cc(C(=O)NCCC3CC3)ccc2N1C(=O)N1CC2CC2C1 (stereo partly specified) | 104.914% and 116.982% | 77.8753% and 111.158% | 181.689% and 143.275% | 157.26% and 132.873% | 82.587% and 82.5348% | 120.178% and 115.743%
11 | COc1cc(C(=O)N2CC[C@@H](O)[C@@H](N)C2)cc2nc(-c3cc4ccccc4n3CC3CC3)n(C)c12.Cl | 95.6097% and 101.11% | 84.8651% and 86.9928% | 141.855% and 120.564% | 139.679% and 135.263% | 108.535% and 117.543% | 77.7437% and 99.4932%
